What all share (assay type): cell-based
Assay [1] concerns Staphylococcus aureus, Pseudomonas aeruginosa, and Streptococcus pneumoniae. Put plainly: Antibacterial activity, overall statements over the test bacteria. An excerpt: The inventors conducted exhaustive experiments to assess the antibacterial activity of peptides from apolipoproteins and derivatives thereof. Peptides and derivatives from ApoE and ApoB were a particular focus. […] Example 1 illustrates the efficacy of the polypeptides according to the invention compared to apoE141-149 and apoB3359-3367 (i.e. non-tandem repeats) and other peptides derived from apolipoproteins.
The activity of polypeptides in accordance with the invention can be seen in Tables 5, 6, 7 and 8.
(§1) The peptides were examined for antibacterial efficacy against Staphylococcus aureus. To test the efficacy of peptides, dilutions of test peptides or PBS (for use as a control) were prepared in LB broth, and 100 μl aliquots of these placed in 96-well plates. A vial of planktonic bacterial stock was thawed in a 37° C. incubator and diluted to the level previously determined which would produce log phase growth after overnight incubation (see above). 25 μl of this bacterial dilution was then added to the test wells (some wells containing LB broth without peptide were left without any bacterial inoculation, these being used as a blank). After overnight growth, the concentration of bacteria in individual wells was assessed by measuring absorbance at 620 nm, in a microplate spectrophotometer. The average absorbance of wells for specific concentrations of peptides was calculated, and from this the percentage inhibition (relative to untreated wells) was also calculated and plotted against concentration (along with an estimate of error on that % inhibition).
(§2) The inventor constructed an expanded library of peptides derived from either apolipoprotein B or apolipoprotein E in order to further evaluate polypeptides in accordance with the invention. Further experiments were then conducted to investigate the antibacterial activity of this peptide library against the bacteria P. aeroginosa, S. aureus and S. pneumoniae. The methods used to determine the IC50 values for each peptide were as described in the Example 1.

The test system of assay [2] is Staphylococcus aureus (ATCC strain 6538P). Conditions: for IC50: ATCC strain 6538P; for Activity against Staphylococcus, in particular S. aureus, in words: summary in description. As for the experimental part:
(§3) Bacterial Stocks—ATCC derived stock bacteria were obtained from Oxoid Limited. Pseudomonas aeruginosa (ATCC strain 9027) or Staphylococcus aureus (ATCC strain 6538P) were obtained in ‘Cultiloop’ format. Stocks were prepared by inoculating 20 ml of LB broth with a single Cultiloop, and incubating overnight at 37° C. Cells present after overnight incubation were harvested by removing larger aggregates by centrifugation (3000 g, 10 minutes), and withdrawing 16 ml of the supernatant, which was likely to contain mainly planktonic bacteria. To this, 4 ml of sterile glycerol was added (the latter having been sterilised by autoclaving). The resultant suspension was divided between 15× 1 ml cryovials before freezing at −85° C.
(§4) Preliminary experiments were carried out to estimate the amount to dilute bacterial stocks which when on addition of 25 μl of diluted stock to 100 μl of fresh LB broth would result in bacteria in log phase growth after overnight incubation at 37° C.
as §1, §2

For assay [3], the system named is Pseudomonas aeruginosa (ATCC strain 9027). The following applies: for IC50: ATCC strain 9027; for Effectiveness against Pseudomonadales, in particular P. aeruginosa, in words: summary in description. As for the experimental part:
as §3, §4, §1
Peptides in accordance with the invention were also examined for antibacterial efficacy against Pseudomonas aeruginosa using the same technique as described above to calculate the IC50 values.
Points were obtained by dividing the average for six treated wells by the average for six untreated wells, and bars show an estimate of the error for these calculated values.
as §2

Where no end group is shown, it is not given here.

Consider LRKLRKRLLLRK [GIN 05], for which, in assay [1], the “Antibacterial activity, in words, bacterium not specified” value is recorded as “do not show antibacterial activity”.
For orientation: IC50 means the point on the concentration scale where inhibition reaches its midpoint. Read a low IC50 as greater potency in that assay. For “RLTRKRGRLTRKRG-NH2 (C-terminus assumed) [MU_74]”, the results for the IC50 in assay [2] and in assay [3] were over 53 µM and 31 µM, respectively.
On to “RWRKRWRKRWRKRWRK-NH2 (C-terminus assumed) [MU_71]”, for which the IC50 in assay [2] came to 18.5 µM; in assay [3], 28 µM.
Regarding “LRVRLASHLRKLRKRLLRDADDLQKRLAVY LRVRLASHLRKLRKRLLRDADDLQKRLAVY (LRVRLASHLRKLRKRLLRDADDLQKRLAVYLRVRLASHLRKLRKRLLRDADDLQKRLAVY) [tandem repeat of Azuma's peptide, 60-mer dimer of apoE133-162]”, the “Antibacterial activity, in words, bacterium not specified” value in assay [1] is on record as “improved antibacterial efficacy”.
As for “LRKLRKRLL [apoE141-149, reference compound]”, the “Antibacterial activity, in words, bacterium not specified” value in assay [1] is “no detectable antibacterial activity”.
As for “WRKWRKFFFRKWRKRWW-NH2 (C-terminus assumed) [MU_116]”, the IC50 in assay [2] was found to be 6.5 µM; in assay [3], 14 µM.
Regarding “WRKWRKRWWFRKWRKRWW-NH2 (C-terminus assumed) [MU_60]”, the values for the IC50 in assay [2] and in assay [3] were 6 µM and 12.5 µM, respectively. Besides, the “Activity against Staphylococcus, in particular S. aureus, in words” value (from here on “Activity against Staphylococcus”) in assay [2] is reported as “particularly active”. The “Antibacterial activity, in words, bacterium not specified” value in assay [1] is on record as “particularly effective”.
With “RKRGWKWRKRGWKW-NH2 (C-terminus assumed) [MU_73]”, the IC50 is 22 µM in assay [2] and 42.5 µM in assay [3]. Moreover, the “Antibacterial activity, in words, bacterium not specified” value in assay [1] is recorded as “particularly effective”.
As to “Ac-LRKRLLLRKLRKRLL-NH2 (N-terminus and C-terminus assumed) [GIN 02]”, in assay [3], the IC50 was 8.5 µM and the “Effectiveness against Pseudomonadales, in particular P. aeruginosa, in words” value was “particularly effective”.
Regarding “RWRKRGRKRWRKRGRK-NH2 (C-terminus assumed) [MU_69]”, the figures for the IC50 in assay [2] and in assay [3] were 27 µM and over 53 µM, respectively.
In assay [2], “Ac-LRKLRKRLLWRKWRKRLL-NH2 (N-terminus and C-terminus assumed) [MU_113]” gave an IC50 of 11 µM. For the same substance, in assay [3], the “Effectiveness against Pseudomonadales, in particular P. aeruginosa, in words” value was “particularly effective”.
For “WRKWRKRWWWRKWRKRWW-NH2 (C-terminus assumed) [MU_4]”, the “Activity against Staphylococcus” value in assay [2] is recorded as “particularly active”. In assay [1], the “Antibacterial activity, in words, bacterium not specified” value is on record as “particularly effective”.
As for “WRKRWWRWRKRWWR-NH2 (C-terminus assumed) [MU_81]”, the IC50 in assay [2] was found to be 20 µM; in assay [3], 28 µM.
As for “WRKWRKRWWFRKFRKRFF-NH2 (C-terminus assumed) [MU_117]”, the IC50 in assay [2] came to 7 µM; in assay [3] it was 10 µM.
For the substance “RWRKRWRKRWRKRWRK-NH2 (C-terminus assumed) [MU_37]”, the IC50 in assay [2] amounted to 35 µM; in assay [3], 23 µM. Further, the “Antibacterial activity, in words, bacterium not specified” value in assay [1] is “particularly effective”.
On to “WRKWRKRFFWRKWRKRFF-NH2 (C-terminus assumed) [MU_61]”, for which, in assay [2], the midpoint of inhibition, the IC50, lay at 5 µM and the “Activity against Staphylococcus” value is “particularly active”. In addition, in assay [3], the midpoint of inhibition, the IC50, lay at 3 µM and the “Effectiveness against Pseudomonadales, in particular P. aeruginosa, in words” value was “particularly effective”. In addition, the “Antibacterial activity, in words, bacterium not specified” value in assay [1] was “particularly effective”.
As for “WRWKKKWRKWRWKKKWRK-NH2 (C-terminus assumed) [MU_26]”, the IC50 in assay [2] and in assay [3] was 52 µM each time.
Consider “RLTRKRGLK [apoB3359-3367, monomeric 9-mer of apolipoprotein B, reference compound]”, for which, in assay [1], the “Antibacterial activity, in words, bacterium not specified” value is “no detectable antibacterial activity”.
“WRKWRKRWRKWRKRW-NH2 (C-terminus assumed) [MU_59]”: the IC50 was 11 µM in assay [2] and 7.5 µM in assay [3]. Moreover, the “Antibacterial activity, in words, bacterium not specified” value in assay [1] is given as “particularly effective”.
As to “WRKWRKRWWRWRKWRKRWWR-NH2 (C-terminus assumed) [MU_83]”, the IC50 was 9 µM in assay [2] and 15 µM in assay [3]. Also, in assay [1], the “Antibacterial activity, in words, bacterium not specified” value is recorded as “particularly effective”.
For “MRKMRKRMMMRKMRKRMM-NH2 (C-terminus assumed) [MU_5]”, the IC50 in assay [2] and in assay [3] was over 53 µM in each case.
In assay [3], “WRKWRKRWRKWRKR-NH2 (C-terminus assumed) [GIN 32]” returned an IC50 of 5 µM.
Turning to “Ac-WRKLRKRLLLRKLRKRLL-NH2 (N-terminus and C-terminus assumed) [MU_115]”, in assay [2], the IC50 turned out to be 9 µM. In assay [3], the IC50 was 3 µM and the “Effectiveness against Pseudomonadales, in particular P. aeruginosa, in words” value is on record as “particularly effective”. In addition, the “Antibacterial activity, in words, bacterium not specified” value in assay [1] is on record as “particularly effective”.
As to “modified apoB3359-3367: modified form of the apoB3359-3367 9-mer; sequence only in the drawing of Table 1 (LRTRKRGRK) [reference compound]”, the “Antibacterial activity, in words, bacterium not specified” value in assay [1] is reported as “no detectable antibacterial activity”.
On to “YRKYRKRYYYRKYRKRYY-NH2 (C-terminus assumed) [MU_6]”, for which the “Activity against Staphylococcus” value in assay [2] is listed as “particularly active”. For the same substance, the IC50 in assay [3] is over 53 µM.
In assay [3], “MRKLRKRLMMRKLRKRLM-NH2 (C-terminus assumed) [MU_43]” displayed an IC50 of 17 µM. Also, the “Antibacterial activity, in words, bacterium not specified” value in assay [1] is recorded as “particularly effective”.
“LLRKRLKRLLLRKRLKRL-NH2 (C-terminus assumed) [MU_24]”: the IC50 is 34 µM in assay [2] and 7 µM in assay [3]. In addition, in assay [1], the “Antibacterial activity, in words, bacterium not specified” value was “particularly effective”.
Regarding CRKCRKRCCCRKCRKRCC [MU_12], the “Antibacterial activity, in words, bacterium not specified” value in assay [1] is given as “do not show antibacterial activity”.
In the case of “WRKWRKRWWRKWRKRWW-NH2 (C-terminus assumed) [MU_58]”, in assay [2], the IC50 stood at 8 µM and the “Activity against Staphylococcus” value is “particularly active”. Also, the IC50 in assay [3] stood at 7.5 µM. In addition, the “Antibacterial activity, in words, bacterium not specified” value in assay [1] is listed as “particularly effective”.
In the case of “Ac-WRKWRKRLLLRKLRKRLL-NH2 (N-terminus and C-terminus assumed) [MU_114]”, in assay [2], half-maximal inhibition (IC50) was put at 5.5 µM and the “Activity against Staphylococcus” value is on record as “particularly active”. The “Effectiveness against Pseudomonadales, in particular P. aeruginosa, in words” value in assay [3] is recorded as “particularly effective”.
As for “Ac-LRKLRKRLLWRKWRKRWW-NH2 (N-terminus and C-terminus assumed) [MU_111]”, the IC50 was found to be 7 µM in assay [2] and 12.5 µM in assay [3].
“Ac-LRKLRKRLLRLRKLRKRLLR-NH2 (N-terminus and C-terminus assumed) [MU_82]” returned an IC50 in assay [2] of 13 µM. Besides, in assay [3], the “Effectiveness against Pseudomonadales, in particular P. aeruginosa, in words” value is “particularly effective”. In assay [1], the “Antibacterial activity, in words, bacterium not specified” value is “particularly effective”.
In the case of “Ac-LRKLRKRLLLRKLRKRWW-NH2 (N-terminus and C-terminus assumed) [MU_112]”, the IC50 in assay [2] and in assay [3] was 7 µM throughout. In assay [1], the “Antibacterial activity, in words, bacterium not specified” value is “particularly effective”.
For “WRWRRRWRKWRWRRRWRK-NH2 (C-terminus assumed) [MU_25]”, the IC50 in assay [2] and in assay [3] was over 53 µM each time.
DRKDRKRDDDRKDRKRDD [MU_3]: the “Antibacterial activity, in words, bacterium not specified” value in assay [1] is on record as “do not show antibacterial activity”.
On to “RWRKRWRWRKRWRWRKRW-NH2 (C-terminus assumed) [MU 84]”, for which the IC50 amounted to 15 µM in assay [2] and 53 µM in assay [3].
For the substance “FRKFRKRFFFRKFRKRFF-NH2 (C-terminus assumed) [MU_7]”, the IC50 in assay [2] came out at 11 µM; in assay [3], 6 µM. Further, the “Antibacterial activity, in words, bacterium not specified” value in assay [1] was “particularly effective”.
Consider “IRKIRKRIIIRKIRKRII-NH2 (C-terminus assumed) [MU_8]”, for which the IC50 is over 53 µM in assay [2] and 45 µM in assay [3].

(Values after patent US8524861B2, “Treatment of bacterial infections” (priority 2004, dated 2013).)
